Results as given in the NIST ThermoML archive (doi:10.1021/je1012586).
± gives the expanded uncertainty stated by the source.

How the values were obtained:
[1] = refractive index (Na D-line) (dimensionless); wn = mass fraction of the nth substance listed; conditions: 101 kPa, Liquid
[2] = wn = mass fraction of the nth substance listed; conditions: for surface tension liquid-gas: Pendant drop shape; for viscosity / mass density: 101 kPa, Liquid; for viscosity: Capillary tube (Ostwald / Ubbelohde) method

## C1CNCCN1 [piperazine] + O
[1]; 298.15 K, w1 = 0.0174
  refractive index: 1.33796 ± 0.0012
[1]; 298.15 K, w1 = 0.0345
  refractive index: 1.34183 ± 0.0012
[1]; 298.15 K, w1 = 0.0688
  refractive index: 1.34759 ± 0.0012
[1]; 298.15 K, w1 = 0.1035
  refractive index: 1.35307 ± 0.0012
[1]; 303.15 K, w1 = 0.0174
  refractive index: 1.33706 ± 0.0012
[1]; 303.15 K, w1 = 0.0345
  refractive index: 1.34024 ± 0.0012
[1]; 303.15 K, w1 = 0.0688
  refractive index: 1.34608 ± 0.0012
[1]; 303.15 K, w1 = 0.1035
  refractive index: 1.35203 ± 0.0012
[1]; 313.15 K, w1 = 0.0174
  refractive index: 1.33604 ± 0.0012
[1]; 313.15 K, w1 = 0.0345
  refractive index: 1.33892 ± 0.0012
[1]; 313.15 K, w1 = 0.0688
  refractive index: 1.34482 ± 0.0012
[1]; 313.15 K, w1 = 0.1035
  refractive index: 1.35071 ± 0.0012
[1]; 323.15 K, w1 = 0.0174
  refractive index: 1.33476 ± 0.0012
[1]; 323.15 K, w1 = 0.0345
  refractive index: 1.33759 ± 0.0012
[1]; 323.15 K, w1 = 0.0688
  refractive index: 1.34336 ± 0.0012
[1]; 323.15 K, w1 = 0.1035
  refractive index: 1.34957 ± 0.0012
[1]; 333.15 K, w1 = 0.0174
  refractive index: 1.33348 ± 0.0012
[1]; 333.15 K, w1 = 0.0345
  refractive index: 1.33577 ± 0.0012
[1]; 333.15 K, w1 = 0.0688
  refractive index: 1.34221 ± 0.0012
[1]; 333.15 K, w1 = 0.1035
  refractive index: 1.34829 ± 0.0012
[2]; 298.15 K, w1 = 0.0174
  surface tension liquid-gas: 70.97 ± 0.63 mN/m
  viscosity: 0.87 ± 0.1 mPa·s
  mass density: 997.75 ± 0.07 kg/m3
[2]; 298.15 K, w1 = 0.0345
  surface tension liquid-gas: 69.95 ± 0.63 mN/m
  viscosity: 0.94 ± 0.1 mPa·s
  mass density: 998.52 ± 0.07 kg/m3
[2]; 298.15 K, w1 = 0.0688
  surface tension liquid-gas: 69.83 ± 0.62 mN/m
  viscosity: 1.08 ± 0.1 mPa·s
  mass density: 1000.18 ± 0.07 kg/m3
[2]; 298.15 K, w1 = 0.1035
  surface tension liquid-gas: 69.41 ± 0.62 mN/m
  viscosity: 1.29 ± 0.1 mPa·s
  mass density: 1002.23 ± 0.07 kg/m3
[2]; 303.15 K, w1 = 0.0174
  surface tension liquid-gas: 70.09 ± 0.62 mN/m
  viscosity: 0.78 ± 0.1 mPa·s
  mass density: 996.37 ± 0.07 kg/m3
[2]; 303.15 K, w1 = 0.0345
  surface tension liquid-gas: 69.18 ± 0.62 mN/m
  viscosity: 0.85 ± 0.1 mPa·s
  mass density: 997.08 ± 0.07 kg/m3
[2]; 303.15 K, w1 = 0.0688
  surface tension liquid-gas: 68.99 ± 0.61 mN/m
  viscosity: 0.96 ± 0.1 mPa·s
  mass density: 998.69 ± 0.07 kg/m3
[2]; 303.15 K, w1 = 0.1035
  surface tension liquid-gas: 68.37 ± 0.61 mN/m
  viscosity: 1.18 ± 0.1 mPa·s
  mass density: 1000.64 ± 0.07 kg/m3
[2]; 308.15 K, w1 = 0.0174
  viscosity: 0.71 ± 0.1 mPa·s
  mass density: 994.74 ± 0.07 kg/m3
[2]; 308.15 K, w1 = 0.0345
  viscosity: 0.75 ± 0.1 mPa·s
  mass density: 995.43 ± 0.07 kg/m3
[2]; 308.15 K, w1 = 0.0688
  viscosity: 0.86 ± 0.1 mPa·s
  mass density: 996.97 ± 0.07 kg/m3
[2]; 308.15 K, w1 = 0.1035
  viscosity: 1.04 ± 0.1 mPa·s
  mass density: 998.84 ± 0.07 kg/m3
[2]; 313.15 K, w1 = 0.0174
  surface tension liquid-gas: 69.11 ± 0.62 mN/m
  viscosity: 0.68 ± 0.1 mPa·s
  mass density: 992.91 ± 0.07 kg/m3
[2]; 313.15 K, w1 = 0.0345
  surface tension liquid-gas: 68.21 ± 0.61 mN/m
  viscosity: 0.69 ± 0.1 mPa·s
  mass density: 993.59 ± 0.07 kg/m3
[2]; 313.15 K, w1 = 0.0688
  surface tension liquid-gas: 68.11 ± 0.61 mN/m
  viscosity: 0.78 ± 0.1 mPa·s
  mass density: 995.07 ± 0.07 kg/m3
[2]; 313.15 K, w1 = 0.1035
  surface tension liquid-gas: 67.44 ± 0.6 mN/m
  viscosity: 0.9 ± 0.1 mPa·s
  mass density: 996.86 ± 0.07 kg/m3
[2]; 318.15 K, w1 = 0.0174
  viscosity: 0.59 ± 0.1 mPa·s
  mass density: 990.9 ± 0.07 kg/m3
[2]; 318.15 K, w1 = 0.0345
  viscosity: 0.63 ± 0.1 mPa·s
  mass density: 991.56 ± 0.07 kg/m3
[2]; 318.15 K, w1 = 0.0688
  viscosity: 0.71 ± 0.1 mPa·s
  mass density: 992.99 ± 0.07 kg/m3
[2]; 318.15 K, w1 = 0.1035
  viscosity: 0.84 ± 0.1 mPa·s
  mass density: 994.73 ± 0.07 kg/m3
[2]; 323.15 K, w1 = 0.0174
  surface tension liquid-gas: 67.93 ± 0.61 mN/m
  viscosity: 0.54 ± 0.1 mPa·s
  mass density: 988.72 ± 0.08 kg/m3
[2]; 323.15 K, w1 = 0.0345
  surface tension liquid-gas: 67.29 ± 0.6 mN/m
  viscosity: 0.57 ± 0.1 mPa·s
  mass density: 989.35 ± 0.07 kg/m3
[2]; 323.15 K, w1 = 0.0688
  surface tension liquid-gas: 67.06 ± 0.6 mN/m
  viscosity: 0.65 ± 0.1 mPa·s
  mass density: 990.74 ± 0.07 kg/m3
[2]; 323.15 K, w1 = 0.1035
  surface tension liquid-gas: 66.45 ± 0.59 mN/m
  viscosity: 0.78 ± 0.1 mPa·s
  mass density: 992.39 ± 0.07 kg/m3
[2]; 328.15 K, w1 = 0.0174
  viscosity: 0.5 ± 0.1 mPa·s
  mass density: 986.37 ± 0.08 kg/m3
[2]; 328.15 K, w1 = 0.0345
  viscosity: 0.52 ± 0.1 mPa·s
  mass density: 986.98 ± 0.08 kg/m3
[2]; 328.15 K, w1 = 0.0688
  viscosity: 0.58 ± 0.1 mPa·s
  mass density: 988.33 ± 0.08 kg/m3
[2]; 328.15 K, w1 = 0.1035
  viscosity: 0.68 ± 0.1 mPa·s
  mass density: 989.92 ± 0.07 kg/m3
[2]; 333.15 K, w1 = 0.0174
  surface tension liquid-gas: 66.99 ± 0.6 mN/m
  viscosity: 0.46 ± 0.1 mPa·s
  mass density: 983.83 ± 0.08 kg/m3
[2]; 333.15 K, w1 = 0.0345
  surface tension liquid-gas: 66.48 ± 0.59 mN/m
  viscosity: 0.48 ± 0.1 mPa·s
  mass density: 984.46 ± 0.08 kg/m3
[2]; 333.15 K, w1 = 0.0688
  surface tension liquid-gas: 66.14 ± 0.59 mN/m
  viscosity: 0.54 ± 0.1 mPa·s
  mass density: 985.77 ± 0.08 kg/m3
[2]; 333.15 K, w1 = 0.1035
  surface tension liquid-gas: 65.31 ± 0.59 mN/m
  viscosity: 0.62 ± 0.1 mPa·s
  mass density: 987.3 ± 0.08 kg/m3
